The source of these data is patent US20250082592A1, “PHARMACEUTICAL COMPOSITION FOR PREVENTION, ALLEVIATION OR TREATMENT OF SARCOPENIA, CONTAINING ROR-alpha ACTIVATOR JC1-40” (SEOUL NATIONAL UNIVERSITY R & DB FOUNDATION, priority 2021, published 2025).

For experiment [1], the system named is C2C12 cells. Briefly: mRNA expression of mitochondrial biosynthesis regulators (PGC-1α, NRF-1, NRF-2α, TFAM), real-time PCR. It counts as cell-based. The note with it: JC1-40 20 μM, 48 hours. On the procedure: C2C12 cells (8×10^5 cells/dish) were seeded in a 60 mm dish and cultured in DMEM (Dulbecco's modified Eagle's medium) containing 10% FBS (fetal bovine serum). The C2C12 cells were maintained at 37° C. in a humidified incubator with 5% CO2 and 95% air. After 48 hours of cultivation, the medium was changed to DMEM differentiation medium containing 2% horse serum, and treated with JC1-40 (20 μM) and solvent (control group). 48 hours after changing to the differentiation medium, RNA was extracted. The RNA extraction method is as described in Example 3. The results of the mRNA expression of mitochondrial biosynthesis regulators PGC-1α(Peroxisome proliferator-activated receptor gamma coactivator 1-alpha), NRF-1 (Nuclear Respiratory Factor 1), NRF-2a (Nuclear Respiratory Factor 2 alpha), and TFAM (Mitochondrial transcription factor A) induced by JC1-40 are shown in FIG. 4A.

A further experiment relates to HeLa cells. Briefly: Mitochondrial quantity, MitoTracker Green staining of HeLa cells. The note with it: JC1-40 5 μM and 50 μM, 24 hours, vs solvent control. It counts as cell-based. On the procedure: HeLa cells (4×10^4 cells/well) were seeded in a 12-well culture plate and cultivated overnight in DMEM (Dulbecco's modified Eagle's medium) medium containing 10% FBS (fetal bovine serum). The HeLa cells were maintained at 37° C. in a humidified incubator with 5% CO2 and 95% air. After 24 hours of cultivation, the medium was replaced and JC1-40 (5 μM, 50 μM), and solvent (control group) were treated for 24 hours.

Experiment [2] concerns C2C12 cells. The experiment can be described thus: Protein expression of NRF1 and TFAM, Western blotting. The note with it: JC1-40 20 μM. The format is cell-based. The procedure: Using a method identical to the above, after treating C2C12 cells with the compound JC1-40, the expression of the mitochondrial biosynthesis regulators, NRF1 and TFAM proteins, was analyzed by Western blotting. Specific antibodies for NRF1 (Santa Cruz Biotechnology), TFAM (Santa Cruz Biotechnology), and α-tubulin (Millipore) were also used.

In a further experiment the target is T1, RORα (Mus musculus, UniProt P51448).
T1 construct: endogenous in cells; host or cells: C2C12 cells
T1 sequence (P51448 1-523): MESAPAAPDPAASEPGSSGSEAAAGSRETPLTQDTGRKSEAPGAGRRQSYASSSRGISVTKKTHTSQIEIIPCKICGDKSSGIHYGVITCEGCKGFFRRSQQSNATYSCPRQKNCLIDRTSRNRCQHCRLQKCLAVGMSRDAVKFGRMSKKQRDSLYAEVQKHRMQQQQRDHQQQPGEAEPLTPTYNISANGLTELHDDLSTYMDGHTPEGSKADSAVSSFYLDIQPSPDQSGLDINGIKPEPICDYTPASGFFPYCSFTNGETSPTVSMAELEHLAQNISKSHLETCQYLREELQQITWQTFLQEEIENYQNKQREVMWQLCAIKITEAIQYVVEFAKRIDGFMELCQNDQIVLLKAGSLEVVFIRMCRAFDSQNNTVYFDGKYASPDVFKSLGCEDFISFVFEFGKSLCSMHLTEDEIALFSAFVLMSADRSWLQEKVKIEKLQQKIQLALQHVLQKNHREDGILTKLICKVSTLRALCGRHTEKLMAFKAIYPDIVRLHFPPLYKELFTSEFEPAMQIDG
Briefly: RORα dependency of TFAM expression, si-RORα transfection in C2C12 cells. The note with it: JC1-40 20 μM, 48 hours. The format is cell-based. The procedure:
C2C12 cells (8×10^5 cells/dish) were seeded in a 60 mm dish and cultured overnight in DMEM (Dulbecco's modified Eagle's medium) containing 10% FBS (fetal bovine serum). The C2C12 cells were maintained at 37° C. in a humidified incubator with 5% CO2 and 95% air. After 24 hours of cultivation, si-RORα (250 pmoles) and si-GL3 (control group) were transfected into C2C12 cells using Lipofectamine 2000 (Thermo Fisher Scientific). After 24 hours post-transfection, the medium was switched to DMEM differentiation medium containing 2% horse serum, and treated with JC1-40 (20 μM) for 48 hours. The methods for RNA and protein extraction were as previously mentioned.

For another experiment, the system named is TFAM promoter. The experiment can be described thus: TFAM promoter transcriptional activity, human TFAM-Luc reporter luciferase assay in C2C12 cells. The format is cell-based. The note with it: JC1-40 20 μM, 24 hours. On the procedure: C2C12 cells (1×10^5 cells/well) were seeded in a 12-well culture plate and cultured overnight in DMEM containing 10% FBS. The C2C12 cells were maintained at 37° C. in a humidified incubator with 5% CO2 and 95% air. After 24 hours of cultivation, human TFAM-Luc reporter (100 ng) was transfected into C2C12 cells using PolyFect (QIAGEN). After 24 hours post-transfection, the medium was changed to DMEM differentiation medium containing 2% horse serum, and treated with JC1-40 (20 μM) and solvent (control group). 24 hours later, cell lysates were obtained and luciferase activity was analyzed and determined using an analytical luminescence luminometer.

In experiment [3] the test system is male C57BL/6 mice, high-fat diet. Briefly: High-fat diet-induced animal model, gastrocnemius tissue immunofluorescence. The format is in vivo. The settings on record: JC1-40 5 mg/kg orally once a day for 5 weeks. The procedure:
To confirm the correlation between the administration of JC1-40, an increase in mitochondrial biosynthesis, and the suppression of sarcopenia, experiments were conducted using a diet-induced animal model. Specifically, male C57BL/6 mice aged 5 weeks were acclimatized in a temperature and humidity-controlled environment for one week and were provided with a high-fat diet (fats derived from lard and soybean oil, 60 kcal % included, Research diets) for 12 weeks. From the 8th week of the diet, JC1-40 was orally administered once a day for 5 weeks at a concentration of 5 mg/kg (FIG. 6A). In detail, an amount of JC1-40 corresponding to the final concentration was measured and added to sterile water containing 0.5% carboxymethyl cellulose, and then uniformly suspended using a mortar and pestle to produce the drug. The dose for each mouse subject was taken and orally administered using a Sonde. The control group was administered sterile water containing 0.5% carboxymethyl cellulose in the same manner. After 12 weeks of diet were completed, the mice were anesthetized, the gastrocnemius tissue was extracted, and it was fixed using a 4% paraformaldehyde solution. The fixed tissue underwent washing, decalcification, and dehydration, and was ultimately made into a paraffin block using paraffin. The created paraffin block was cut into sections with a thickness of 3 μm, and after creating sections, protein expression was confirmed with fluorescence using specific antibodies for COX4 (Cytochrome c oxidase subunit 4, Santa Cruz Biotechnology) and TFAM (Mitochondrial transcription factor A, Santa Cruz Biotechnology).

Experiment [4] concerns C2C12 cells. Briefly: mRNA expression of mitochondrial constituent genes (SDHA, COX5A, MCAD), real-time PCR. It counts as cell-based. The settings on record: JC1-40 20 μM, 48 hours. The procedure: C2C12 cells (8×10^5 cells/dish) were seeded in a 60 mm dish and cultured in DMEM (Dulbecco's modified Eagle's medium) medium containing 10% FBS (fetal bovine serum). C2C12 cells were maintained at 37° C. in a humidified incubator with 5% CO2 and 95% air. After 48 hours of cultivation, the medium was changed to DMEM differentiation medium containing 2% horse serum, and the cells were treated with JC1-40 (20 μM) and solvent (control group). After 48 hours from the replacement of the differentiation medium, RNA was extracted. For extraction, the cells were dissolved with EASY BLUE (Intron, Korea), and isopropanol fractionation and ethanol precipitation were utilized. cDNA was synthesized from each RNA sample, and oligomers amplifying the cDNA of specific genes were utilized, monitoring the expression of R-actin as a control group. More specifically, an mRNA-M-MLV mixture was prepared using M-MLV reverse transcriptase (Invitrogen), and reverse transcription polymerase chain reaction was conducted using a thermal cycler. Subsequently, real-time polymerase chain reaction was performed using the ABI StepOnePlus Real-Time PCR system (Applied Biosystems).
On the technique in general: Real-time PCR tracks product formation cycle by cycle.

Experiment [5] has as its system C2C12 cells. Briefly: Mitochondrial membrane potential, TMRM staining of C2C12 myotubes. The note with it: JC1-40 20 μM, 48 hours in differentiation medium, vs solvent control. It counts as cell-based. The procedure: C2C12 cells (2×10^5 cells/well) were seeded in a 12-well culture plate and cultivated in DMEM (Dulbecco's modified Eagle's medium) medium containing 10% FBS (fetal bovine serum). The C2C12 cells were maintained at 37° C. in a humidified incubator with 5% CO2 and 95% air. After 48 hours of cultivation, the medium was changed to DMEM (Dulbecco's modified Eagle's medium) differentiation medium containing 2% horse serum, and the cells were treated with JC1-40 (20 μM) and solvent (control group). 48 hours after changing the differentiation medium, the mitochondria of the C2C12 cells were stained with Tetramethylrhodamine, Methyl Ester, and Perchlorate (TMRM) 600 nM. After 20 minutes, the medium was replaced with new medium containing TMRM 150 nM, and red fluorescence was observed after 10 minutes.

Consider `CNC(=S)NCc1ccc(OCc2ccccc2)cc1` [JC1-40, 1-methyl-3-[(4-phenylmethoxyphenyl)methyl]thiourea], for which, in the experiment with C2C12 cells [1], the “mRNA expression of NRF-1” value is reported as “increased”, the “mRNA expression of NRF-2” value is given as “increased”, the “mRNA expression of PGC-1α” value is “increased” and the “mRNA expression of TFAM” value is given as “increased”. Besides, the “green fluorescence (MitoTracker Green), quantity of mitochondria” value in the experiment with HeLa cells is given as “increased in a concentration-dependent manner”. For the same compound, in the experiment on C2C12 cells [2], the “protein expression of NRF-1” value is on record as “increased” and the “protein expression of TFAM” value is “increased”. Further, the “increase in TFAM expression with si-RORα” value on RORα (C2C12 cells transfected with si-RORα (250 pmoles)) was “did not occur”. In addition, the “protein expression of TFAM” value on RORα (C2C12 cells, si-GL3 control) is listed as “increased”. Also, the “transcriptional activity of the TFAM promoter (luciferase activity)” value in the experiment on TFAM promoter is “confirmed to be due to the transcriptional activity of the TFAM promoter”. Further, in experiment [3], the “protein expression of COX4 in gastrocnemius tissue” value is recorded as “significantly increased”, the “protein expression of TFAM in gastrocnemius tissue” value is recorded as “significantly increased” and the “sarcopenia induced by the high-fat diet” value is given as “significantly improved”. In the experiment with C2C12 cells [4], the “mRNA expression of COX5A” value was “increased”, the “mRNA expression of MCAD” value is reported as “increased” and the “mRNA expression of SDHA” value is on record as “increased”. Further, in the experiment with C2C12 cells [5], the “red fluorescence (TMRM), mitochondrial membrane potential” value is listed as “increased”.
